From patent publication US20230263757A1, “DISINFECTING WIPE KIT FOR CENTRAL VENOUS ACCESS DEVICES” (SterileCare Inc., priority 2022, published 2023) come the findings set out here.

Test [1] relates to 48-h-old biofilms of bacterial and fungal strains. In words: MBEC assay, 24-h exposure. Format: cell-based. As to conditions: 24 h of treatment. On the procedure:
A biofilm cultivation cell composition was provided. This fifth composition was created using an MBEC Assay® biofilm inoculator, consisting of a polystyrene lid with 96 downward-protruding pegs and a corresponding base used to grow biofilms. A standardized inoculum was diluted in an appropriate biofilm growth medium to achieve a viable cell count of 1.5×10^6 CFU/mL of bacterial cells or 5×10^5 CFU/mL of fungal cells. Then, 150 μL of this inoculum was transferred into each appropriate well, and the peg lids were inserted into the microtiter plates. The plates were sealed with Parafilm and were incubated at optimum temperature for 48 h with slight rocking for bacteria and shaking at 200 rpm for fungal strains. After incubation, the peg lid was removed from the base and rinsed twice with sterile phosphate-buffered saline (PBS) for 2 min to remove loosely attached non-sessile cells. Before the antimicrobial challenge, the pegs in column 1 (n=8) were considered the biofilm growth control; these pegs were removed from the lids, placed into 200 μL of recovery medium, and analyzed for starting biofilm cell numbers as described below. […] After the antimicrobial challenge, the pegs were rinsed twice with sterile PBS for 2 min and placed into a new 96-well plate containing 200 μL of recovery medium. The recovery plates were sealed with Parafilm, and biofilm cells were dislodged from the pegs by sonication for 30 min with a Branson 3510 bath sonicator. The biofilm cells in the recovery medium were serially diluted, and a drop dilution assay was performed to enumerate the viable cells. MBEC values were determined as the minimum concentration of antimicrobials that yielded a viable cell count at or lower than the 125 CFU/mL detection limit.

In test [2] the test system is C. albicans ON47. In words: Checkerboard, FMCI. Format: cell-based, Candida albicans. As to conditions: for microbicidal concentration in combination: EDTA + ethanol. As for the experimental part: (§1) An assay was made using a minimum inhibitory concentration (MIC) and minimum bactericidal concentration (MBC) and minimum fungicidal concentration (MFC) determination. The MIC was determined by the micro broth dilution method in 96-well plates. Serial two-fold dilutions of tetrasodium EDTA (from 2% to 0.015%), ethanol (from 50% to 0.1%) and chlorhexidine HCl (from 100 μg/mL to 0.025 μg/mL) were prepared in MH broth with a final volume of 90 μL per well. A 10 μL containing 1×10^5 bacterial cells or 2×10^3 fungal cells were added to each well. The inoculated plates were covered with a lid, sealed with Parafilm, and incubated for 24 h at 37° C. with slight rocking on a tilting platform shaker. After incubation, the optical density at 600 nm (OD 600) of the cultures in each well was measured using an xMark™ Microplate Absorbance Spectrophotometer (Bio-Rad). […] MBCs and MFCs were determined by transferring 100 μL from each well with no apparent growth onto appropriate agar plates, followed by incubation for 24 h at 37° C.
(§2) A fourth composition and solution included tetrasodium EDTA with ethanol or chlorhexidine HCl. This fourth composition and solution were created using checkerboard titration methods using micro broth dilution in 96-well microtiter plates. The concentrations of antimicrobials used were based on previously determined MIC values. Briefly, 200 μL, of two-fold dilutions of tetrasodium EDTA and ethanol or chlorhexidine HCl were prepared in MH or MH II broth with standardized cell suspension. […] Microtiter plates were incubated at 37° C. for 24 h, and the results were analyzed. Each test was performed in duplicate and included a growth control without adding any antimicrobials.

For test [3], the system named is S. epidermidis SK9. In words: Checkerboard, FMCI. As to conditions: for microbicidal concentration in combination: EDTA + ethanol. It is filed as cell-based, Staphylococcus epidermidis. On the procedure: as §1, §2
The subject of test [4] is C. albicans ON47. In words: FBEC index, checkerboard on biofilms. It is filed as cell-based, Candida albicans. As to conditions: for biofilm eradication concentration in combination (FBEC): EDTA + ethanol.
Description: (§4) In step (4), microtiter plates are incubated at 37° C. for 24 h. then (6), after incubation, the bacterial and fungal cells were dislodged from the pegs into the recovery medium described above.
(§5) Three 10-μL aliquots, for a total of 30 μL from each well of recovery medium, were spotted on MH agar plates and incubated for 24 h at 37° C. […] The FBEC determination is a modification of the FICI.
Test [5] concerns Staphylococcus epidermidis SK9. In words: MBEC assay, 48-h biofilm, 24 h exposure. Format: cell-based. As for the experimental part: (§3) A biofilm cultivation cell composition was provided. This fifth composition was created using an MBEC Assay® biofilm inoculator, consisting of a polystyrene lid with 96 downward-protruding pegs and a corresponding base used to grow biofilms. A standardized inoculum was diluted in an appropriate biofilm growth medium to achieve a viable cell count of 1.5×10^6 CFU/mL of bacterial cells or 5×10^5 CFU/mL of fungal cells. Then, 150 μL of this inoculum was transferred into each appropriate well, and the peg lids were inserted into the microtiter plates. The plates were sealed with Parafilm and were incubated at optimum temperature for 48 h with slight rocking for bacteria and shaking at 200 rpm for fungal strains. After incubation, the peg lid was removed from the base and rinsed twice with sterile phosphate-buffered saline (PBS) for 2 min to remove loosely attached non-sessile cells. Before the antimicrobial challenge, the pegs in column 1 (n=8) were considered the biofilm growth control; these pegs were removed from the lids, placed into 200 μL of recovery medium, and analyzed for starting biofilm cell numbers as described below. The rinsed pegs were placed into new 96-well plates containing two-fold dilutions of antimicrobials such as tetrasodium EDTA (4%-0.0125%), ethanol (100%-0.2%), and chlorhexidine HCl (100 μg/mL-0.4 μg/mL) in 200 μL of suitable biofilm growth medium per well and incubated at optimum temperature for 24 h. After the antimicrobial challenge, the pegs were rinsed twice with sterile PBS for 2 min and placed into a new 96-well plate containing 200 μL of recovery medium. The recovery plates were sealed with Parafilm, and biofilm cells were dislodged from the pegs by sonication for 30 min with a Branson 3510 bath sonicator. The biofilm cells in the recovery medium were serially diluted, and a drop dilution assay was performed to enumerate the viable cells. MBEC values were determined as the minimum concentration of antimicrobials that yielded a viable cell count at or lower than the 125 CFU/mL detection limit.

In the next test the test system is Candida albicans SK4b. The test is described as follows: MBEC assay, 48-h biofilm, 24 h exposure. It is filed as cell-based. On the procedure: as §3
Test [6] deals with Pseudomonas aeruginosa SK1. The test is described as follows: MBEC assay, 48-h biofilm, 24 h exposure. It is filed as cell-based. As for the experimental part: as §3
For a further test, the system named is Proteus mirabilis ON153. In words: MBEC assay, 48-h biofilm, 24 h exposure. It is filed as cell-based. On the procedure: as §3
The next test deals with Escherichia coli SK2. In words: MBEC assay, 48-h biofilm, 24 h exposure. It is filed as cell-based. As for the experimental part:
as §3

In test [7] the test system is Staphylococcus aureus ON89. In words: MBEC assay, 48-h biofilm, 24 h exposure. It is filed as cell-based. On the procedure: as §3
In test [8] the test system is MRSA ON184. The test is described as follows: FBEC index, checkerboard on biofilms. It is filed as cell-based, S. aureus. As to conditions: for biofilm eradication concentration in combination (FBEC): EDTA + ethanol.
Description: as §4, §5
For test [9], the system named is S. epidermidis SK9. The test is described as follows: Checkerboard titration, FICI. The settings on record: for concentration in combination: EDTA + ethanol. It is filed as cell-based, Staphylococcus epidermidis. As for the experimental part: as §2
Test [10] concerns MRSA ON184. In words: Checkerboard titration, FICI. Format: cell-based, S. aureus. The settings on record: for concentration in combination: EDTA + ethanol. On the procedure:
as §2

Counter-ions that a name gives are not always drawn.

In the case of `[H]/N=C(\N/C(=N/[H])NCCCCCCNC(=N)NC(=N)Nc1ccc(Cl)cc1)Nc1ccc(Cl)cc1` [Chlorhexidine HCl, 1,6-bis(4′-chlorophenylbiguanide) hexane], the “concentration alone able to eradicate all established biofilms” value (shortened to “concentration alone able”) in [1] is 100 µg/mL. Further, the “Chlorhexidine HCl microbicidal concentration in combination” value was found to be 1.6 µg/mL in the test on C. albicans ON47 [2] (EDTA + chlorhexidine HCl) and 0.4 µg/mL in the test with S. epidermidis SK9 [3] (EDTA + chlorhexidine HCl). Moreover, the “Chlorhexidine HCl biofilm eradication concentration in combination (FBEC)” value in the test with C. albicans ON47 [4] (EDTA + chlorhexidine HCl) and in the test on MRSA ON184 [8] (EDTA + chlorhexidine HCl) was 6.25 µg/mL each time. Moreover, the MBEC in test [5] worked out at 25 µg/mL; in the test on Candida albicans SK4b it was 50 µg/mL; in [6], 100 µg/mL; with Proteus mirabilis ON153 it was 100 µg/mL; in the test with Escherichia coli SK2 it was 50 µg/mL; in test [7], 100 µg/mL. Further, the “Chlorhexidine HCl concentration in combination” value with S. epidermidis SK9 [9] (EDTA + chlorhexidine HCl) amounted to 0.025 µg/mL; in the test on MRSA ON184 [10] (EDTA + chlorhexidine HCl), 0.2 µg/mL.

With `O=C([O-])CN(CCN(CC(=O)[O-])CC(=O)[O-])CC(=O)[O-].[Na+].[Na+].[Na+].[Na+]` [EDTA, tetrasodium EDTA], the “concentration alone able” value in test [1] was 4%. Moreover, the figures for the “EDTA microbicidal concentration in combination” value with C. albicans ON47 [2] (EDTA + chlorhexidine HCl) and in the test with S. epidermidis SK9 [3] (EDTA + chlorhexidine HCl) were 0.031 % w/v and 0.008 % w/v, respectively. Also, the “microbicidal concentration in combination” value in the test on C. albicans ON47 [2] is given as 0.25 % w/v; in the test on S. epidermidis SK9 [3] it was 0.031 % w/v. The “EDTA biofilm eradication concentration in combination (FBEC)” value in the test with C. albicans ON47 [4] (EDTA + chlorhexidine HCl) and in the test on MRSA ON184 [8] (EDTA + chlorhexidine HCl) was 0.031 % w/v throughout. Also, the “biofilm eradication concentration in combination (FBEC)” value in the test with C. albicans ON47 [4] came out at 0.125 % w/v; in the test with MRSA ON184 [8], 0.063 % w/v. The MBEC turned out to be 2 % w/v in [5]; 1 % w/v with Candida albicans SK4b; 4 % w/v in test [6]; 4 % w/v in the test on Proteus mirabilis ON153; 2 % w/v with Escherichia coli SK2; 4 % w/v in test [7]. Moreover, the entries for the “EDTA concentration in combination” value with S. epidermidis SK9 [9] (EDTA + chlorhexidine HCl) and in the test on MRSA ON184 [10] (EDTA + chlorhexidine HCl) were 0.015 % w/v and 0.008 % w/v, respectively. Besides, the concentration in combination with S. epidermidis SK9 [9] and in the test with MRSA ON184 [10] was 0.015 % w/v each time.

For `CCO` [Ethanol, ethanol], in test [1], the “concentration alone able” value is given as 5%. The “microbicidal concentration in combination” value in the test with C. albicans ON47 [2] and with S. epidermidis SK9 [3] was 3.125 % w/v each time. For the same compound, the “biofilm eradication concentration in combination (FBEC)” value with C. albicans ON47 [4] and with MRSA ON184 [8] was 1.6 % w/v each time. The MBEC came out at 12.5 % w/v in test [5]; 12.5 % w/v with Candida albicans SK4b; 12.5 % w/v in test [6]; 50 % w/v in the test on Proteus mirabilis ON153; 12.5 % w/v in the test on Escherichia coli SK2; 12.5 % w/v in [7]. The concentration in combination in the test on S. epidermidis SK9 [9] and in the test on MRSA ON184 [10] was 0.4 % w/v in each case.
